Assay results: ChEMBL document CHEMBL1629664, “Oral and parenteral therapeutic options for outpatient urinary infections caused by enterobacteriaceae producing CTX-M extended-spectrum beta-lactamases” (2009)
In brackets after ≈: the same amount, converted by molar mass.

Key:
Format in all cases: functional
Enterobacteriaceae [1] = assay: Antibacterial activity against beta-lactamase CTX-M ESBL-producing Enterobacteriaceae by twofold dilution method
Enterobacteriaceae [2] = assay: Antibacterial activity against beta-lactamase SHV or TEM ESBL-producing Enterobacteriaceae assessed as percent susceptible isolates by twofold dilution method
Enterobacteriaceae [3] = assay: Antibacterial activity against beta-lactamase CTX-M ESBL-producing Enterobacteriaceae assessed as percent susceptible isolates by twofold dilution method
Enterobacteriaceae [4] = assay: Antibacterial activity against beta-lactamase SHV or TEM ESBL-producing Enterobacteriaceae by twofold dilution method
Enterobacteriaceae [5] = assay: Antibacterial activity against beta-lactamase SHV or TEM ESBL-producing Enterobacteriaceae assessed as percent susceptible isolates by twofold dilution method in presence of beta-lactamase inhibitor clavulanate
Enterobacteriaceae [6] = assay: Antibacterial activity against beta-lactamase CTX-M ESBL-producing Enterobacteriaceae by twofold dilution method in presence of beta-lactamase inhibitor clavulanate
Enterobacteriaceae [7] = assay: Antibacterial activity against beta-lactamase CTX-M ESBL-producing Enterobacteriaceae assessed as percent susceptible isolates by twofold dilution method in presence of beta-lactamase inhibitor clavulanate
Enterobacteriaceae [8] = assay: Antibacterial activity against beta-lactamase SHV or TEM ESBL-producing Enterobacteriaceae by twofold dilution method in presence of beta-lactamase inhibitor clavulanate
Enterobacteriaceae [9] = assay: Antibacterial activity against beta-lactamase SHV or TEM ESBL-producing Enterobacteriaceae assessed as percent susceptible isolates by broth microdilution method
Enterobacteriaceae [10] = assay: Antibacterial activity against beta-lactamase CTX-M ESBL-producing Enterobacteriaceae by broth microdilution method
Enterobacteriaceae [11] = assay: Antibacterial activity against beta-lactamase SHV or TEM ESBL-producing Enterobacteriaceae by broth microdilution method
Enterobacteriaceae [12] = assay: Antibacterial activity against beta-lactamase CTX-M ESBL-producing Enterobacteriaceae assessed as percent susceptible isolates by broth microdilution method
Klebsiella sp. = assay: Antibacterial activity against beta-lactamase ESBL-producing Klebsiella sp. assessed as percent susceptible isolates by broth microdilution method
Proteus mirabilis = assay: Antibacterial activity against beta-lactamase ESBL-producing Proteus mirabilis assessed as percent susceptible isolates by broth microdilution method
Escherichia coli [13] = assay: Antibacterial activity against beta-lactamase ESBL-producing Escherichia coli assessed as percent susceptible isolates by broth microdilution method
Escherichia coli [14] = assay: Antibacterial activity against beta-lactamase ESBL-producing Escherichia coli by broth microdilution method
Enterobacteriaceae [15] = assay: Antibacterial activity against beta-lactamase CTX-M ESBL-producing Enterobacteriaceae assessed as percent susceptible isolates by agar dilution method
Enterobacteriaceae [16] = assay: Antibacterial activity against beta-lactamase SHV or TEM ESBL-producing Enterobacteriaceae assessed as percent susceptible isolates by agar dilution method
Enterobacteriaceae [17] = assay: Antibacterial activity against beta-lactamase CTX-M ESBL-producing Enterobacteriaceae by agar dilution method
Enterobacteriaceae [18] = assay: Antibacterial activity against beta-lactamase SHV or TEM ESBL-producing Enterobacteriaceae by agar dilution method

For `C=CC1=C(C(=O)O)N2C(=O)[C@@H](NC(=O)/C(=N\O)c3csc(N)n3)[C@H]2SC1` [CEFDINIR], the MIC50 (Enterobacteriaceae [1]) was 16 µg/mL (≈ 40.5 µM), the MIC90 (Enterobacteriaceae [1]) was 16 µg/mL (≈ 40.5 µM) and the Activity (Enterobacteriaceae [2]) was 0%. The Activity (Enterobacteriaceae [3]) was 0%, the MIC50 (Enterobacteriaceae [4]) was 4 µg/mL (≈ 10.1 µM) and the MIC90 (Enterobacteriaceae [4]) was 16 µg/mL (≈ 40.5 µM).

`CC1(C)S[C@@H]2[C@H](NC(=O)[C@H](N)c3ccc(O)cc3)C(=O)N2[C@H]1C(=O)O` [AMOXICILLIN] showed an Activity (Enterobacteriaceae [5]) of 45.5%, an MIC50 (Enterobacteriaceae [1]) of 4 µg/mL (≈ 10.9 µM) and an MIC90 (Enterobacteriaceae [1]) of 4 µg/mL (≈ 10.9 µM). It also gave an MIC50 (Enterobacteriaceae [6]) of 32 µg/mL, an MIC90 (Enterobacteriaceae [6]) of 32 µg/mL and an Activity (Enterobacteriaceae [7]) of 10.9%. The MIC50 (Enterobacteriaceae [8]) was 32 µg/mL, the MIC90 (Enterobacteriaceae [8]) was 32 µg/mL and the MIC50 (Enterobacteriaceae [4]) was 4 µg/mL (≈ 10.9 µM). The MIC90 (Enterobacteriaceae [4]) was 4 µg/mL (≈ 10.9 µM).

With `C[C@H]1c2cccc(O)c2C(=O)C2=C(O)[C@]3(O)C(=O)C(C(N)=O)=C(O)[C@@H](N(C)C)[C@@H]3[C@@H](O)[C@@H]21.O` [DOXYCYCLINE] the Activity (Enterobacteriaceae [9]) was 18.2%, the MIC50 (Enterobacteriaceae [10]) was 16 µg/mL and the MIC90 (Enterobacteriaceae [10]) was 16 µg/mL. For the same molecule, the MIC50 (Enterobacteriaceae [11]) was 16 µg/mL, the MIC90 (Enterobacteriaceae [11]) was 16 µg/mL and the Activity (Enterobacteriaceae [12]) was 10.9%.

Work on `C[C@@H](O)[C@H]1C(=O)N2C(C(=O)O)=C(S[C@@H]3CN[C@H](C(=O)Nc4cccc(C(=O)O)c4)C3)[C@H](C)[C@H]12` [ERTAPENEM] yielded an Activity (Klebsiella sp.) of 100%, an Activity (Enterobacteriaceae [9]) of 100% and an MIC50 (Enterobacteriaceae [10]) of 0.06 µg/mL (≈ 0.126 µM). The MIC90 (Enterobacteriaceae [10]) was 0.25 µg/mL (≈ 0.526 µM), the Activity (Proteus mirabilis) was 100% and the MIC50 (Enterobacteriaceae [11]) was 0.12 µg/mL (≈ 0.252 µM). For the same molecule, the MIC90 (Enterobacteriaceae [11]) was 1 µg/mL (≈ 2.1 µM), the Activity (Enterobacteriaceae [12]) was 100% and the Activity (Escherichia coli [13]) was 100%. The MIC90 (Escherichia coli [14]) was 0.06 µg/mL (≈ 0.126 µM).

`O=C1CN(/N=C/c2ccc([N+](=O)[O-])o2)C(=O)N1` [NITROFURANTOIN] was tested, and the Activity (Enterobacteriaceae [9]) was 45.5%, the MIC50 (Enterobacteriaceae [10]) was 16 µg/mL (≈ 67.2 µM) and the MIC90 (Enterobacteriaceae [10]) was 64 µg/mL (≈ 269 µM). For the same molecule, the MIC50 (Enterobacteriaceae [11]) was 64 µg/mL (≈ 269 µM), the MIC90 (Enterobacteriaceae [11]) was 64 µg/mL (≈ 269 µM) and the Activity (Enterobacteriaceae [12]) was 73.9%.

In the case of `O=C(O)c1cn(C2CC2)c2cc(N3CCNCC3)c(F)cc2c1=O` [CIPROFLOXACIN], the Activity (Enterobacteriaceae [9]) is reported as 36.4%, the MIC50 (Enterobacteriaceae [10]) is reported as 32 µg/mL (≈ 96.6 µM) and the MIC90 (Enterobacteriaceae [10]) is reported as 32 µg/mL (≈ 96.6 µM). The MIC50 (Enterobacteriaceae [11]) was 32 µg/mL (≈ 96.6 µM), the MIC90 (Enterobacteriaceae [11]) was 32 µg/mL (≈ 96.6 µM) and the Activity (Enterobacteriaceae [12]) was 4.3%.

With `C[C@@H]1O[C@@H]1P(=O)(O)O` [FOSFOMYCIN] the Activity (Enterobacteriaceae [15]) was 91.3%, the Activity (Enterobacteriaceae [16]) was 100% and the MIC50 (Enterobacteriaceae [17]) was 0.5 µg/mL (≈ 3.62 µM). It also gave an MIC90 (Enterobacteriaceae [17]) of 64 µg/mL (≈ 464 µM), an MIC50 (Enterobacteriaceae [18]) of 4 µg/mL (≈ 29 µM) and an MIC90 (Enterobacteriaceae [18]) of 8 µg/mL (≈ 57.9 µM).
